As a reminder, the melting point is the temperature of the solid-liquid transition.

Where two headings read alike, the source gives them in different places. Square brackets hold non-standard residues; d marks the D form. Peptide text beside a SMILES is read from it. * marks the point of attachment. dPhe(4-NO2) = N[C@H](Cc1ccc([N+](=O)[O-])cc1)C(=O)O; Trp(5-OH) = N[C@@H](Cc1c[nH]c2ccc(O)cc12)C(=O)O; dPhe(4-Cl) = N[C@H](Cc1ccc(Cl)cc1)C(=O)O; Nicotinoyl = O=C(c1cccnc1)*; Bz = O=C(c1ccccc1)*

The record followed here is patent publication US9593144B2, “FPR1 antagonist derivatives and use thereof” (CHANG GUNG UNIVERSITY, priority 2014, dated 2017).

For data set [1], the system named is human neutrophils. As to the kind of experiment: cells. In kind it is cell-based. Particulars: for IC50: mean ± SEM. From the text: Tables 5 and 6 explore whether there is an anti-inflamatory effect in the dipeptide derivatives. Because ferricytochrome c cannot penetrate cell membranes, it reacts with superoxide anion extracellularly. Also, there are absorptive reactions at 550 nm, and differences among the absorptive reactions can be used to evaluate the influence on the release of superoxide anion. The elastase is released by degranulation as the neutrophil is activated. Tables 5 and 6 use the substrate, MeO-Suc-Ala-Ala-Pro-Val-p-nitroanilide, with the specificity for reacting with the elastase so as to evaluate the influence of the candidate compound on the elastase release.
Blood was taken from healthy human donors (20-32 years old) by venipuncture, following a protocol approved by the Institutional Review Board at Chang Gung Memorial Hospital. Neutrophils were isolated by a standard method of dextran sedimentation prior to centrifugation in a Ficoll Hypaque gradient and the hypotonic lysis of erythrocytes.
The evaluation of O2.^− generation was based on the SOD-inhibitable reduction of ferricytochrome c. In brief, after supplementation with 0.5 mg ml^−1 ferricytochrome c and 1 mM Ca^2+, neutrophils were equilibrated at 37° C. for 2 min and incubated with drugs […].

The test system of data set [2] is human neutrophils. As to the kind of experiment: cells. The settings on record: for IC50: mean ± SEM. In kind it is cell-based. How it is done:
Degranulation of azurophilic granules was determined by elastase release as described above. Experiments were performed using MeO-Suc-[…]-nitroanilide as the elastase substrate. […] Results are expressed as the percentage of elastase release in the drug-free control group, DMSO. Tables 5 and 6 explore whether there is an anti-inflamatory effect in the dipeptide derivatives. Because ferricytochrome c cannot penetrate cell membranes, it reacts with superoxide anion extracellularly. Also, there are absorptive reactions at 550 nm, and differences among the absorptive reactions can be used to evaluate the influence on the release of superoxide anion. The elastase is released by degranulation as the neutrophil is activated. Tables 5 and 6 use the substrate, MeO-Suc-[…]-nitroanilide, with the specificity for reacting with the elastase so as to evaluate the influence of the candidate compound on the elastase release. Blood was taken from healthy human donors (20-32 years old) by venipuncture, following a protocol approved by the Institutional Review Board at Chang Gung Memorial Hospital. Neutrophils were isolated by a standard method of dextran sedimentation prior to centrifugation in a Ficoll Hypaque gradient and the hypotonic lysis of erythrocytes. […] The degranulation of azurophilic granules was determined by elastase release as described above. Experiments were performed using MeO-Suc-[…]-nitroanilide as the elastase substrate. Briefly, after supplementation with MeO-Suc-[…]-nitroanilide ([…] neutrophils (6×10^5 ml^-1) were equilibrated at 37° C. for 2 min and incubated with drugs for 5 min. […] The results are expressed as the percentage of elastase release in the drug-free control group.
This is another data set of the same source.

Setting [3] is: Neutrophil, human neutrophils, fMLP/CB, n = 3, Table 1, read-out: Anti-inflammation O2•− generation (IC50).
[4] abbreviates: Neutrophil, fMLP/CB, n = 3, Table 1, read-out: Anti-inflammation NE release (IC50).
The mark [5] stands for this setting: human neutrophils, fMLP/CB, n = 3, Table 1, read-out: Anti-inflammation O2•− generation (IC50).
Setting [6] is: fMLP/CB, n = 3, Table 1, read-out: Anti-inflammation NE release (IC50).
[7] abbreviates: human neutrophils, fMLP/CB, n = 3, Table 2, read-out: Anti-inflammation O2•− generation (IC50).
Setting [8] is: fMLP/CB, n = 3, Table 2, read-out: Anti-inflammation NE release (IC50).
Setting [9] is: human neutrophils, fMLP/CB, n = 3, Table 3, read-out: Anti-inflammation O2•− generation (IC50).
The mark [10] stands for this setting: fMLP/CB, n = 3, Table 3, read-out: Anti-inflammation NE release (IC50).

Turning to `COC(=O)[C@@H](Cc1ccccc1)NC(=O)[C@H](Cc1c[nH]c2ccccc12)NC(=O)c1ccc(F)cc1` [Compound 4, N—(N-4-Fluorobenzoyl-L-tryptophanyl)-D-phenylalanine methyl ester], the melting point lay within 191 to 193 °C. The IC50 in the data set with human neutrophils [1] (setting [3]) is more than 30 µM. In the data set on human neutrophils [2] (setting [4]), the IC50 was more than 30 µM.
The molecule `COC(=O)[C@@H](Cc1ccccc1)NC(=O)[C@H](Cc1c[nH]c2ccccc12)NC(=O)c1ccc(Cl)cc1` [Compound 5, N—(N-4-Chlorobenzoyl-L-tryptophanyl)-D-phenylalanine methyl ester] showed a melting point of 191 to 193 °C. The IC50 in the data set on human neutrophils [1] (setting [3]) is more than 30 µM. In addition, the IC50 with human neutrophils [2] (setting [4]) turned out to be 10.4 ± 4.61 µM.
`COC(=O)[C@@H](Cc1ccccc1)NC(=O)[C@H](Cc1c[nH]c2ccccc12)NC(=O)c1ccc(C)cc1` [Compound 6, N—(N-4-Methylbenzoyl-L-tryptophanyl)-D-phenylalanine methyl ester] showed a melting point of 169 to 171 °C. In addition, the IC50 in the data set with human neutrophils [1] (Neutrophil, WKYMVm, n = 4 or 8, Table 5, read-out: Superoxide anion WKYMVm IC50) came to 6.55 ± 0.59 µM. Moreover, the IC50 with human neutrophils [1] (Neutrophil, WKYMVm/CB, n = 3, Table 4, read-out: WKYMVm/CB O2•− generation (IC50)) came out at 6.55 ± 0.59 µM. Besides, the IC50 in the data set with human neutrophils [1] (Neutrophil, human neutrophils, fMLF/CB, n = 3, Table 4, read-out: fMLF/CB O2•− generation (IC50)) was found to be 1.88 ± 0.29 µM. For the same molecule, the IC50 in the data set with human neutrophils [1] (Neutrophil, human neutrophils, fMLF, n = 4 or 8, Table 5, read-out: Superoxide anion fMLF IC50) amounted to 1.88 ± 0.29 µM. The IC50 in the data set on human neutrophils [1] (setting [3]) came out at 1.88 ± 0.29 µM. In addition, the IC50 in the data set with human neutrophils [2] (Neutrophil, WKYMVm, n = 4 or 8, Table 6, read-out: Elastase release WKYMVm IC50) came out at 1.96 ± 0.11 µM. Further, the IC50 in the data set on human neutrophils [2] (Neutrophil, WKYMVm/CB, n = 3, Table 4, read-out: WKYMVm/CB NE release (IC50)) was determined as 1.96 ± 0.11 µM. In addition, in the data set on human neutrophils [2] (Neutrophil, fMLF, n = 4 or 8, Table 6, read-out: Elastase release fMLF IC50), the IC50 was determined as 2.47 ± 0.25 µM. Also, the IC50 in the data set on human neutrophils [2] (Neutrophil, fMLF/CB, n = 3, Table 4, read-out: fMLF/CB NE release (IC50)) was determined as 2.47 ± 0.25 µM. Also, in the data set with human neutrophils [2] (setting [4]), the IC50 stood at 2.47 ± 0.25 µM.
Take `COC(=O)[C@@H](Cc1ccccc1)NC(=O)[C@H](Cc1c[nH]c2ccc(O)cc12)NC(=O)c1ccccc1` [Compound 11a, N—(N-Benzoyl-5-hydroxy-L-tryptophanyl)-D-phenylalanine methyl esters] (Bz-[Trp(5-OH)]-[dF]-OMe): the IC50 was 8.81 ± 1.22 µM with human neutrophils [1] (setting [5]) and 9.11 ± 0.76 µM in the data set on human neutrophils [2] (setting [6]).
On the same counts, the results for `COC(=O)[C@@H](Cc1ccccc1)NC(=O)[C@H](Cc1c[nH]c2ccc(O)cc12)NC(=O)c1ccccc1` [Compound 11b, N—(N-Benzoyl-5-hydroxy-L-tryptophanyl)-D-phenylalanine methyl esters] (Bz-[Trp(5-OH)]-[dF]-OMe) are 18.7 ± 4.02 µM and 22.1 ± 4.96 µM.
`O=C(N[C@@H](Cc1c[nH]c2ccccc12)C(=O)N[C@@H](CO)Cc1cccc(O)c1)c1ccccc1` [Compound 12a, N—(N-Benzoyl-L-tryptophanyl)-5-hydroxy-D-phenylalaninol]: the IC50 in the data set with human neutrophils [1] (Neutrophil, human neutrophils, fMLP/CB, n = 3, Table 3, read-out: Anti-inflammation O2•− generation (IC50)) was more than 30 µM; with human neutrophils [2] (Neutrophil, fMLP/CB, n = 3, Table 3, read-out: Anti-inflammation NE release (IC50)), more than 30 µM.
Turning to `COC(=O)[C@@H](Cc1ccccc1)NC(=O)[C@H](Cc1c[nH]c2ccccc12)NC(=O)c1cccnc1` [Compound 15a, N—(N-nicotinoyl-L-tryptophanyl)-D-phenylalanine methyl esters] (Nicotinoyl-Trp-[dF]-OMe), the IC50 in the data set on human neutrophils [1] (setting [5]) was 13.1 ± 0.5 µM; in the data set on human neutrophils [2] (setting [6]), more than 30 µM.
Turning to `COC(=O)[C@@H](Cc1ccccc1)NC(=O)[C@H](Cc1c[nH]c2ccccc12)NC(=O)c1cccnc1` [Compound 15b, N—(N-nicotinoyl-L-tryptophanyl)-D-phenylalanine methyl esters] (Nicotinoyl-Trp-[dF]-OMe), the IC50 in the data set on human neutrophils [1] (setting [5]) and in the data set on human neutrophils [2] (setting [6]) was more than 30 µM throughout.
Regarding `COC(=O)[C@@H](Cc1ccc([N+](=O)[O-])cc1)NC(=O)[C@H](Cc1c[nH]c2ccccc12)NC(=O)c1ccccc1` [Compound 18a, N—(N-Benzoyl-L-tryptophanyl)-para-nitro-D-phenylalanine methyl esters] (Bz-Trp-[dPhe(4-NO2)]-OMe), the figures for the IC50 in the data set with human neutrophils [1] (setting [7]) and in the data set on human neutrophils [2] (setting [8]) were 19 ± 2.7 µM and 11.2 ± 0.46 µM, respectively.
On the same counts, the results for `COC(=O)[C@@H](Cc1ccc([N+](=O)[O-])cc1)NC(=O)[C@H](Cc1c[nH]c2ccccc12)NC(=O)c1ccccc1` [Compound 18b, N—(N-Benzoyl-L-tryptophanyl)-para-nitro-D-phenylalanine methyl esters] (Bz-Trp-[dPhe(4-NO2)]-OMe) are 13.1 ± 0.4 µM and 15.4 ± 0.54 µM.
Turning to `COC(=O)[C@@H](Cc1ccc(Cl)cc1)NC(=O)[C@H](Cc1c[nH]c2ccccc12)NC(=O)c1ccccc1` [Compound 21a, N—(N-Benzoyl-L-tryptophanyl)-para-chloro-D-phenylalanine methyl esters] (Bz-Trp-[dPhe(4-Cl)]-OMe), the IC50 was 4.41 ± 0.27 µM in the data set with human neutrophils [1] (setting [7]) and 4.31 ± 0.52 µM in the data set with human neutrophils [2] (setting [8]).
The matching figures for `COC(=O)[C@@H](Cc1ccc(Cl)cc1)NC(=O)[C@H](Cc1c[nH]c2ccccc12)NC(=O)c1ccccc1` [Compound 21b, N—(N-Benzoyl-L-tryptophanyl)-para-chloro-D-phenylalanine methyl esters] (Bz-Trp-[dPhe(4-Cl)]-OMe): 5.26 ± 0.84 µM and 12.4 ± 3.53 µM.
Turning to `N#CCNC(=O)[C@@H](Cc1ccccc1)NC(=O)[C@H](Cc1c[nH]c2ccccc12)NC(=O)c1ccccc1` [Compound 27a, N—(N-benzoyl-L-tryptophanyl)-D-phenylalanine-glycine-nitriles], in the data set with human neutrophils [1] (WKYMVm, inhibitory percentage under 10 μM, Table 5, listed as HCH 90-2-2), the “Superoxide anion WKYMVm Inh %” value stood at 28.79 ± 2.6 %. Further, the IC50 was 6.23 ± 1.05 µM in the data set on human neutrophils [1] (human neutrophils, fMLF, n = 4 or 8, Table 5, read-out: Superoxide anion fMLF IC50); 4.23 ± 2.44 µM in the data set with human neutrophils [1] (setting [9]); 4.69 ± 0.8 µM with human neutrophils [2] (setting [10]). The “Elastase release WKYMVm Inh %” value in the data set with human neutrophils [2] (WKYMVm, inhibitory percentage under 10 μM, Table 6) amounted to 35.9 ± 0.8 %. For the same molecule, the “Elastase release fMLF Inh %” value in the data set with human neutrophils [2] (fMLF, inhibitory percentage under 10 μM, Table 6, listed as HCH 90-2-2) is 28.79 ± 2.6 %.
In the case of `N#CCNC(=O)[C@@H](Cc1ccccc1)NC(=O)[C@H](Cc1c[nH]c2ccccc12)NC(=O)c1ccccc1` [Compound 27b, N—(N-benzoyl-L-tryptophanyl)-D-phenylalanine-glycine-nitriles], the “Superoxide anion WKYMVm Inh %” value in the data set on human neutrophils [1] (WKYMVm, inhibitory percentage under 10 μM, Table 5, listed as HCH 90-2-1) is reported as 18.66 ± 0.7 %. Also, in the data set on human neutrophils [1] (human neutrophils, fMLF, inhibitory percentage under 10 μM, Table 5), the “Superoxide anion fMLF Inh %” value came out at 34.61 ± 4.1 %. Further, the IC50 in the data set with human neutrophils [1] (setting [9]) stood at 10.5 ± 4.23 µM; in the data set on human neutrophils [2] (WKYMVm, n = 4 or 8, Table 6, read-out: Elastase release WKYMVm IC50) it was 6.65 ± 0.23 µM; in the data set on human neutrophils [2] (setting [10]) it was 14.5 ± 2.87 µM. Moreover, in the data set with human neutrophils [2] (fMLF, inhibitory percentage under 10 μM, Table 6, listed as HCH 90-2-1), the “Elastase release fMLF Inh %” value is on record as 18.66 ± 0.7 %.
For the molecule `C/C=C/C[C@@H](C)[C@@H](O)[C@H]1C(=O)N[C@@H](CC)C(=O)N(C)CC(=O)N(C)[C@@H](CC(C)C)C(=O)N[C@@H](C(C)C)C(=O)N(C)[C@@H](CC(C)C)C(=O)N[C@@H](C)C(=O)N[C@H](C)C(=O)N(C)[C@@H](CC(C)C)C(=O)N(C)[C@@H](CC(C)C)C(=O)N(C)[C@H](C(C)C)C(=O)N1C` [CycH, Cyclosporin H, reference compound], the IC50 in the data set with human neutrophils [2] (WKYMVm/CB, n = 3, Table 4, read-out: WKYMVm/CB NE release (IC50)) was determined as 0.17 ± 0.01 µM.
Regarding `CC(C)(C)C(=O)Oc1ccc(S(=O)(=O)Nc2ccccc2C(=O)NCC(=O)O)cc1` [Sivelestat, reference compound], in the data set with human neutrophils [2] (setting [4]), the IC50 was 0.046 ± 0.02 µM.
